Tests used:
[1] = target: T1, MMP-2 (Homo sapiens, UniProt P08253); assay: K(obs) of individual phage substrates (set of 1369); assay type: biochemical; settings: MMP2; individual phage substrate from the set of 1369 peptides; hyphen in the sequence marks the cleavage position
T1 sequence (P08253 110-660): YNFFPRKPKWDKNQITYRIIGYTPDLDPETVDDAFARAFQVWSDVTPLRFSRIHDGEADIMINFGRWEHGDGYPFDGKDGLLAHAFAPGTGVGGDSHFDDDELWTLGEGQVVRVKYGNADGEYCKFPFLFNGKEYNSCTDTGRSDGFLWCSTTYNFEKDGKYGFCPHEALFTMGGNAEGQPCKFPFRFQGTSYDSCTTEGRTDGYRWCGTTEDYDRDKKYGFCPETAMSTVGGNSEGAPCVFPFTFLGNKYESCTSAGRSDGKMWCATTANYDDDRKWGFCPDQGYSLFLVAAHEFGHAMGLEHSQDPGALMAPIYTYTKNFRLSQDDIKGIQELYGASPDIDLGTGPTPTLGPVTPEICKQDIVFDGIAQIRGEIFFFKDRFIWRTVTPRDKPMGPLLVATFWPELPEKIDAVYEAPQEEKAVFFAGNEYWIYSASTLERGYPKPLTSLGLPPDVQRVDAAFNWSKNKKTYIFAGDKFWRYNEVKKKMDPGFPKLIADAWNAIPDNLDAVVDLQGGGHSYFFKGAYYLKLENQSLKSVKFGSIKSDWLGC

[2] = tested on: MMP-9; assay: Substrate phage display with NGS: relative probability (RP) of P3-P1' tetramer clusters; assay type: biochemical, human
[3] = target: MMP-9 (Homo sapiens, UniProt P14780); assay: K(obs) of individual phage substrates (set of 1369); assay type: biochemical; settings: MMP9; individual phage substrate of the set of 1369 peptides; dash in sequence marks cleavage position
[4] = tested on: MMP-2; assay: Substrate phage display with NGS: relative probability (RP) of P3-P1' tetramer clusters; assay type: biochemical, human
[5] = MMP9, RP of the substrate's P3-P1' tetramer, substrate phage display with NGS
[6] = normalized RP of matching tetramer, unique part of MMP2 selectome

Sequence of MMP-9 (Homo sapiens, UniProt P14780) (P14780 94-707): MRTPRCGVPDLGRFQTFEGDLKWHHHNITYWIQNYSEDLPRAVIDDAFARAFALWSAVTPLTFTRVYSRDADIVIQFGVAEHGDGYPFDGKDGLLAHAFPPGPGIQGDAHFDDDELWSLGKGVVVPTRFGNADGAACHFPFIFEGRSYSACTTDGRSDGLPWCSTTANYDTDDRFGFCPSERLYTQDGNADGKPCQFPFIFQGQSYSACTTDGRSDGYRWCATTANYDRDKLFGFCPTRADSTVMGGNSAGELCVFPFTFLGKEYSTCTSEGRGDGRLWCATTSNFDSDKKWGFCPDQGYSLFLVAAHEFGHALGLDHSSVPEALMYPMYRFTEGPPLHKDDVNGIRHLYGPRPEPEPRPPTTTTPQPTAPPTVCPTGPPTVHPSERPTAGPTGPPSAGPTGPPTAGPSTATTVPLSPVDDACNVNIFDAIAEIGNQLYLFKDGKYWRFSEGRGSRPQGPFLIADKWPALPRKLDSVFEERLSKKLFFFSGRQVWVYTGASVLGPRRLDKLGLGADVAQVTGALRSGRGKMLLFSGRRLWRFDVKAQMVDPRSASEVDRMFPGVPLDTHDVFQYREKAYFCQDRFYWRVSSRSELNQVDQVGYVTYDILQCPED

| Substance | Kobs [1] [M⁻¹ s⁻¹] | relative probability (RP) [2, 5] | Kobs [3] [M⁻¹ s⁻¹] | also measured |
| --- | --- | --- | --- | --- |
| SGPRQ-LSTTA | 12792.1 | 43.5363 | 12792.1 | – |
| WTPRG-NTASG | 231.616 | 15.8425 | 2409.72 | – |
| YGPRA-ITASG | 12792.1 | 47.8426 | 12792.1 | – |
| TLIRY-LTASG | 10866.7 | 33.2843 | 12792.1 | – |
| GMLRA-MHTAS | 6396.07 | 36.706 | 3253.29 | – |
| SYPRA-YTASG | 12792.1 | 46.2238 | 12792.1 | – |
| SGPSH-WIGTA | 12792.1 | 19.8718 | 7015.91 | – |
| SVLSK-LTASG | 12792.1 | 0.5605 | 0 | – |
| MGPWG-MTASG | 4335.13 | 49.8335 | 12792.1 | – |
| SGPVA-MTKTA | 1418.96 | 44.6624 | 6396.07 | – |
| IAPEF-LTASG | 12792.1 | 20.835 | 12792.1 | – |
| SGPGA-MMFTA | 12792.1 | 36.3159 | 5090.5 | – |
| HTVYW-MTASG | 2038.8 | 40.8648 | 6396.07 | – |
| WGTLA-LTASG | 1112.44 | 8.919 | 4613.14 | – |
| GEPLF-LRTAS | 12792.1 | 38.6603 | 12792.1 | – |
| NRPSW-VTASG | 9740.44 | 29.0809 | 12792.1 | – |
| QRPMD-LTASG | 12792.1 | 44.1549 | 12792.1 | – |
| TVLGN-LTASG | 12792.1 | 10.3813 | 690.17 | – |
| PTLQY-LTASG | 12792.1 | 2.48 | 585.336 | – |
| SSPLN-YTASG | 12792.1 | 47.778 | 12792.1 | – |
| EAIGR-LTASG | 12792.1 | 4.541 | 517.582 | – |
| VGPAF-LTASG | 12792.1 | 38.454 | 12792.1 | – |

| Substance | Kobs [1] [M⁻¹ s⁻¹] | relative probability (RP) [2, 5] | Kobs [3] [M⁻¹ s⁻¹] | also measured |
| --- | --- | --- | --- | --- |
| GLARA-LKTAS | 12792.1 | 38.5396 | 4335.13 | – |
| RGPSS-YTASG | 12792.1 | 41.6306 | 12792.1 | – |
| GRPSP-FWTAS | 12792.1 | 37.3217 | 3850.82 | – |
| KRLAF-LTASG | 12792.1 | 0.6348 | 912.511 | – |
| PTWRG-LTASG | 5269.78 | 37.3667 | 12792.1 | – |
| GHIAW-FTASG | 12792.1 | 7.9655 | 1513.13 | – |
| VVPNN-LTASG | 12792.1 | 38.7188 | 12792.1 | – |
| KGPSG-LTASG | 12792.1 | 47.388 | 10866.7 | – |
| SGISW-MRHTA | 7815.03 | 21.4 | 2476.66 | – |
| RLPIN-LTASG | 12792.1 | 44.8884 | 12792.1 | – |
| IAPAK-LTASG | 12792.1 | 39.5582 | 12792.1 | – |
| RLPYP-LTASG | 12792.1 | 48.6636 | 12792.1 | – |
| HTVRG-LTASG | 12792.1 | 42.3063 | 12792.1 | – |
| GYFAN-LTASG | 12792.1 | 0.8121 | 0 | – |
| GRPRS-LLTAS | 12792.1 | 44.7764 | 7815.03 | – |
| SGVAW-LKHTA | 12792.1 | 35.286 | 4205.91 | – |
| SVPST-LTASG | 12792.1 | 36.3405 | 5269.78 | – |
| MGPWF-MTASG | 0 | 35.6409 | 9740.44 | – |
| TNVFW-YTASG | 2409.72 | 29.291 | 10866.7 | – |
| SGVRD-LYFTA | 1030.73 | 30.416 | 2916.17 | – |
| GSGRG-LWSET | 799.117 | 11.4523 | 1373.05 | – |
| KHPYK-YTASG | 1816.46 | 33.5853 | 12792.1 | – |

| Substance | Kobs [1] [M⁻¹ s⁻¹] | relative probability (RP) [2, 5] | Kobs [3] [M⁻¹ s⁻¹] | also measured |
| --- | --- | --- | --- | --- |
| SGPRA-VSATA | 12792.1 | 40.8515 | 12792.1 | – |
| HTVRN-VTASG | 5269.78 | 19.0254 | 3079.62 | – |
| NSPMS-LTASG | 12792.1 | 47.1282 | 12792.1 | – |
| TMLLA-LTASG | 12792.1 | 6.729 | 654.784 | – |
| WRPFS-YTASG | 12792.1 | 43.4281 | 12792.1 | – |
| SGPKG-MRMTA | 9740.44 | 48.8441 | 12792.1 | – |
| FLPRM-LTASG | 12792.1 | 42.2884 | 12792.1 | – |
| RDLGF-LTASG | 12792.1 | 3.437 | 0 | – |
| SGPRG-VTVTA | 12792.1 | 42.1832 | 12792.1 | – |
| MFVRK-LTASG | 10866.7 | 0 | 4763.33 | – |
| GRPVN-LTTAS | 12792.1 | 46.0636 | 12792.1 | – |
| QRWFA-LTASG | 2038.8 | 14.7831 | 6688.74 | – |
| TPPVE-LTASG | 12792.1 | 35.1044 | 12792.1 | – |
| GFVFE-LRTAS | 5889.62 | 20.3412 | 9740.44 | – |
| VDVSF-LTASG | 8941.32 | 1.252 | 912.511 | – |
| YKPVY-YTASG | 12792.1 | 30.5191 | 12792.1 | – |
| SGPKL-LTASG | 5090.5 | 35.7561 | 12792.1 | – |
| WQVRY-LTASG | 12792.1 | 32.3577 | 12792.1 | – |
| SGVWN-LMSTA | 3438.54 | 38.922 | 12792.1 | – |
| FAPAE-VTASG | 12792.1 | 5.593 | 3438.54 | – |
| GPKGFR | – | – | – | relative probability (RP) ([4]; RP of the P3-P1' tetramer cluster contained in the hexamer, 200 nM MMP-2, 2 h, 37°C, two rounds of selection): 30.2308; relative probability (RP) ([2]; MMP9, RP of the P3-P1' tetramer contained in the hexamer substrate (substrate phage display, NGS)): 42.0715 |
| IGGL [P3-P1' tetramer cluster] | – | – | – | relative probability (RP) of matching tetramer ([4]; P3-P1' tetramer matching the MS detected MMP2 cleavage sequence, RP_above_4.5): 26.48; relative probability (RP) (acc.to MMP2) ([4]; RP of matching tetramer, unique part of MMP2 selectome, RP above KL threshold): 26.48; normalized RP - MMP2 [4, 6]: 0.7251; relative probability (RP) (acc.to MMP9) ([2]; RP of matching tetramer, unique part of MMP2 selectome): 4.4; normalized RP - MMP9 [2, 6]: 0.084; relative probability (RP) ([2]; tetramer projected onto MMP-9 cleavage sites determined by Prudova et al. (2010)): 4.4 |
